Assay results published in ChEMBL document CHEMBL1152961, “Synthesis and biological evaluation of novel carbon-11 labeled pyridyl ethers: candidate ligands for in vivo imaging of alpha4beta2 nicotinic acetylcholine receptors (alpha4beta2-nAChRs) in the brain with positron emission tomography” (Bioorg Med Chem, 2009).

Tests used:
[1] = target: Neuronal acetylcholine receptor subunit alpha-2 (Rattus norvegicus, UniProt P12389+P12390); assay: Displacement of [3H]epibatidine from rat alpha2beta2 nicotinic receptor expressed in human HEK293 cells by liquid scintillation counting; format: cell-based
Neuronal acetylcholine receptor subunit alpha-2, sequence (P12389 whole entry, one chain of several): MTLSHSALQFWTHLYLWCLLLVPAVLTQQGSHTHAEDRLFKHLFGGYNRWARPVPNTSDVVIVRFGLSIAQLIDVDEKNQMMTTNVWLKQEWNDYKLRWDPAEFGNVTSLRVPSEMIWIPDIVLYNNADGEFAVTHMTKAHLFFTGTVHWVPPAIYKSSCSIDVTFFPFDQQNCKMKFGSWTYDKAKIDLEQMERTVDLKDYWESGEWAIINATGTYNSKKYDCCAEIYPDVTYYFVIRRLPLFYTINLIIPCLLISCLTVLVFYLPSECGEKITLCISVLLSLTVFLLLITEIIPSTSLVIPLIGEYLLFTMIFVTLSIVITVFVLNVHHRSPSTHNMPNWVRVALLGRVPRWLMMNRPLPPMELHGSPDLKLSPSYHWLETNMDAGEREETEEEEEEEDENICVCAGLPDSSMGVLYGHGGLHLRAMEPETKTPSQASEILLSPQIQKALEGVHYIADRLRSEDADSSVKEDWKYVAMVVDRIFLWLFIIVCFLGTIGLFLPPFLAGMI

[2] = target: Neuronal acetylcholine receptor; alpha3/beta4 (Rattus norvegicus, UniProt P04757+P12392); assay: Displacement of [3H]epibatidine from rat alpha3beta4 nicotinic receptor expressed in human HEK293 cells by liquid scintillation counting; format: cell-based
Neuronal acetylcholine receptor; alpha3/beta4, sequence (P04757 whole entry): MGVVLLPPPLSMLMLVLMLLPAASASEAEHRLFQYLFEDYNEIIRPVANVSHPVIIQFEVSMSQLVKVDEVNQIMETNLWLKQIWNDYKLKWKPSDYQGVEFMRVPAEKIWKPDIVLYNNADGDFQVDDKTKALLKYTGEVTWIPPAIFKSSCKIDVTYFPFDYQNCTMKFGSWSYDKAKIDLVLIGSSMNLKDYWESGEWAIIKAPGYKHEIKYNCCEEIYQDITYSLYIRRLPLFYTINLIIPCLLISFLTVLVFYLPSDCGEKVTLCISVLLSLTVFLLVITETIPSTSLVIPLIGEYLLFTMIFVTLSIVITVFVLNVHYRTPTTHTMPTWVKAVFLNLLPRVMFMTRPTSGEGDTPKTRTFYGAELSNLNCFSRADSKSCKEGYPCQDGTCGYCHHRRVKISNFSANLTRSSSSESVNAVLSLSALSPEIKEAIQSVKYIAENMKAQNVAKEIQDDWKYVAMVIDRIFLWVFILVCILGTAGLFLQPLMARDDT
Neuronal acetylcholine receptor; alpha3/beta4, sequence (P12392 whole entry): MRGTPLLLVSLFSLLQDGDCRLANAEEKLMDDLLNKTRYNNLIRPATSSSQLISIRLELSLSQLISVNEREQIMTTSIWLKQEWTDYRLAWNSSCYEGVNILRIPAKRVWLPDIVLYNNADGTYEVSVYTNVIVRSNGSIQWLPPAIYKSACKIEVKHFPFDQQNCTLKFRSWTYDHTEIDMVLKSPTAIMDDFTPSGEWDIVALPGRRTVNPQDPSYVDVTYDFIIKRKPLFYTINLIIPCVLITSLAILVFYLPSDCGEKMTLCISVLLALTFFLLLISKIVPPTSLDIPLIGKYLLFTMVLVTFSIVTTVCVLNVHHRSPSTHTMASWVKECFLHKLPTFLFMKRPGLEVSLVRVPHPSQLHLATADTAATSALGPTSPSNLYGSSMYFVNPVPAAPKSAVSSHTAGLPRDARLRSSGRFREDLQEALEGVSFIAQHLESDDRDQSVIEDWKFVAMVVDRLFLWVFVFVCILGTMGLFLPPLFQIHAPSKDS

[3] = target: Neuronal acetylcholine receptor; alpha3/beta2 (Rattus norvegicus, UniProt P04757+P12390); assay: Displacement of [3H]epibatidine from rat alpha3beta2 nicotinic receptor expressed in human HEK293 cells by liquid scintillation counting; format: cell-based
Neuronal acetylcholine receptor; alpha3/beta2, sequence (P04757 whole entry): as the sequence (P04757 whole entry) above
Neuronal acetylcholine receptor; alpha3/beta2, sequence (P12390 whole entry): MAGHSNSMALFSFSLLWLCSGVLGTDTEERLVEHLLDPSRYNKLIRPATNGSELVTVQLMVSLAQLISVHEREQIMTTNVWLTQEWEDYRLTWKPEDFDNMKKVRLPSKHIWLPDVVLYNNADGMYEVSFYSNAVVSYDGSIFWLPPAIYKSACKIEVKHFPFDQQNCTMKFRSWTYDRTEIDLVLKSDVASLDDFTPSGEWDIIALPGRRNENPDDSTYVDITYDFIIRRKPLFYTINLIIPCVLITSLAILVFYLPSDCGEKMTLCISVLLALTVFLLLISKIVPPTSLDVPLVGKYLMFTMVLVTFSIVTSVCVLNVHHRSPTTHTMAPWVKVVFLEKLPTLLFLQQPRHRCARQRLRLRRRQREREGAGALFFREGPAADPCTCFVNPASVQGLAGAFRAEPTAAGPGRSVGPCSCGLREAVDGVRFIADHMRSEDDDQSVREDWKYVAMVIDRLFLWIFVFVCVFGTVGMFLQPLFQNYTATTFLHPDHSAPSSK

[4] = target: Neuronal acetylcholine receptor; alpha2/beta4 (Rattus norvegicus, UniProt P12389+P12392); assay: Displacement of [3H]epibatidine from rat alpha2beta4 nicotinic receptor expressed in human HEK293 cells by liquid scintillation counting; format: cell-based
Neuronal acetylcholine receptor; alpha2/beta4, sequence (P12389 whole entry): as the sequence (P12389 whole entry, one chain of several) above
Neuronal acetylcholine receptor; alpha2/beta4, sequence (P12392 whole entry): as the sequence (P12392 whole entry) above

[5] = species on record: Rattus norvegicus; assay: Selectivity ratio of Ki for rat alpha3beta4 nicotinic receptor to Ki for rat alpha4beta2 nicotinic receptor
[6] = target: T1, Neuronal acetylcholine receptor; alpha4/beta2 (Rattus norvegicus, UniProt P09483+P12390); assay: Displacement of [3H]epibatidine from rat alpha4beta2 nicotinic receptor expressed in human HEK293 cells by liquid scintillation counting; format: cell-based
T1 sequence (P09483 whole entry): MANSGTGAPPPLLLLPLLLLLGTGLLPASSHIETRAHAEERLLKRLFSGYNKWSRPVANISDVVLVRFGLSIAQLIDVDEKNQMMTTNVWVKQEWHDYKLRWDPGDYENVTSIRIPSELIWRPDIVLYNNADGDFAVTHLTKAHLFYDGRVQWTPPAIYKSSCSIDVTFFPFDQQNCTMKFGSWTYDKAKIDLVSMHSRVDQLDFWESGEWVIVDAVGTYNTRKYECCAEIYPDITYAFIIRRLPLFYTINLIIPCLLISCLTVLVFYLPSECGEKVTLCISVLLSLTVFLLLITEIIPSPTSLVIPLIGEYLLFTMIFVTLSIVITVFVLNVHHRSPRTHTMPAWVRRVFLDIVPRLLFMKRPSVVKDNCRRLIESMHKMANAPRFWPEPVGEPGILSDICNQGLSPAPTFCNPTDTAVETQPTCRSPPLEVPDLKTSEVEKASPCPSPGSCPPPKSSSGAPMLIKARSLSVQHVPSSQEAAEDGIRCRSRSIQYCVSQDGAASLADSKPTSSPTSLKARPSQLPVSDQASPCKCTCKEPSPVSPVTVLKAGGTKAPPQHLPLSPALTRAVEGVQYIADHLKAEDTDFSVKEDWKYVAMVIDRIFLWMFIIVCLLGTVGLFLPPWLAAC
T1 sequence (P12390 whole entry): as the sequence (P12390 whole entry) above

[7] = target: Neuronal acetylcholine receptor; alpha4/beta2 (Rattus norvegicus) (UniProt P09483+P12390); assay: Ratio of compound Ki to epibatidine Ki for rat alpha4beta2 nicotinic receptor expressed in human HEK293 cells; format: cell-based
[8] = target: Neuronal acetylcholine receptor; alpha4/beta4 (Rattus norvegicus, UniProt P09483+P12392); assay: Displacement of [3H]epibatidine from rat alpha4beta4 nicotinic receptor expressed in human HEK293 cells by liquid scintillation counting; format: cell-based
Neuronal acetylcholine receptor; alpha4/beta4, sequence (P09483 whole entry): as the sequence (P09483 whole entry) above
Neuronal acetylcholine receptor; alpha4/beta4, sequence (P12392 whole entry): as the sequence (P12392 whole entry) above

[9] = Octanol-water partition coefficient, log D at pH 7.4 by shake flask method; format: physicochemical
[10] = target: T1, Neuronal acetylcholine receptor; alpha4/beta2; assay: Displacement of [125I]5-A-85380 from alpha4beta2 nicotinic receptor in rat brain; format: tissue-based
[11] = Drug uptake in baboon brain thalamus assessed as binding potential at 17.5 mCi by bolus injection; format: ADME, organism-based; details: papio anubis, in vivo, iv
[12] = Drug uptake in baboon brain thalamus assessed as binding potential at 21 mCi by bolus injection; format: ADME, organism-based; details: papio anubis, in vivo, iv
[13] = Ratio of drug uptake in thalamus to cerebellum of CD1 mouse at 0.07 mCi, iv after 45 mins; format: ADME, organism-based; details: in vivo, 0.75 h
[14] = Drug uptake in baboon brain thalamus assessed as binding potential at 31 mCi by bolus injection; format: ADME, organism-based; details: papio anubis, in vivo, iv

SMILES	Ki [1] [nM]	Ki [2] [nM]	Ki [3] [nM]	Ki [4] [nM]	Ratio Ki [5]	Ki [6] [nM]	Ratio Ki [7]	Ki [8] [nM]	logD [9]	Ki [10] [nM]	logD ([9]; read-out: logD)	Drug uptake [11]	Drug uptake [12]	Ratio [13]	Drug uptake [14]
Fc1ncccc1OC[C@@H]1CCN1	1.4	3700	3	180											
CN1CCC[C@H]1COc1cnc(Cl)c(-c2ccnc(F)c2)c1	0.05	590	0.71	27	9520	0.062	1	16	1.6						
CN1CCC[C@H]1COc1cnc(Cl)c(OCc2ccnc(F)c2)c1	0.022	90	0.33	11	1450	0.062	1	1.6	1.8						
[11CH3]N1CCC[C@H]1COc1cnc(Cl)c(/C=C/c2ccncc2)c1										0.028	1.6				
CN1CCC[C@H]1COc1cnc(Cl)c(OCc2ccc(Cl)nc2)c1	0.031	320	0.26	14	5820	0.055	0.9	6.6							
[11CH3]N1CCC[C@H]1COc1cnc(Cl)c(OCc2ccc(Cl)nc2)c1												0.7	0.7	3.8	0.7
CN1CCC[C@H]1COc1cnc(Cl)c(/C=C/c2ccncc2)c1							2.8								
Fc1cc(COc2cc(OC[C@@H]3CCCN3)cnc2Cl)ccn1	0.035	43	0.25	8.2	331	0.13	2.1	1.1	1.4						
CN1CCC[C@@H]1COc1cnc(Cl)c(OCc2ccc(Cl)nc2)c1	1.5	350	0.85	22	318	1.1	18	7.6	2.2						
[11CH3]N1CCC[C@H]1COc1cnc(Cl)c(-c2ccnc(F)c2)c1												0.7	0.7		0.7
